Assay results taken from patent US10508120B2, “TYK2 inhibitors and uses thereof” (Nimbus Lakshmi, Inc., priority 2017, dated 2019).
Read-outs that look alike come from different tables or passages of the source.

Columns and labels:
[1] = target: human TYK2 (JH2domain-pseudokinase) (Homo sapiens (Human), UniProt P29597); assay: TYK2 JH2 Domain Binding Assay (KINOMEscan)
Procedure, shortened: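 Competition binding of an NFkB-DBD fusion of human TYK2 JH2 (G556–D888), expressed in HEK293 and used as crude extract at <0.1 nM, against immobilized ligand beads; 1 h at room temperature in PBS/Tween/DTT/BSA buffer, 0.9% DMSO.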

[2] = target: Tyk2 kinase domain (DH1) (Homo sapiens (Human), UniProt P29597); assay: Tyk2 Radioactive Kinase Assay; assay type: biochemical; conditions: for inhibition at 10 µM: read-out: Tyk2 JH1% Inhibition @ 10 μM
Description: (§1) The Tyk2 and JAK2 radioactive kinase assay measures the percent inhibition at the Tyk2 kinase domain (DH1) and the percent inhibition at the JAK2 kinase domain (JH1). Results of the assay are expressed as percent inhibition at 10 μM.

[3] = target: JAK2 kinase domain (JH1) (Homo sapiens (Human), UniProt O60674); assay: JAK2 Radioactive Kinase Assay; assay type: biochemical; conditions: for inhibition at 10 µM: read-out: JAK2 JH1% Inhibition @ 10 μM
Description: as §1

JAK2 kinase domain (JH1), sequence (O60674 849-1124): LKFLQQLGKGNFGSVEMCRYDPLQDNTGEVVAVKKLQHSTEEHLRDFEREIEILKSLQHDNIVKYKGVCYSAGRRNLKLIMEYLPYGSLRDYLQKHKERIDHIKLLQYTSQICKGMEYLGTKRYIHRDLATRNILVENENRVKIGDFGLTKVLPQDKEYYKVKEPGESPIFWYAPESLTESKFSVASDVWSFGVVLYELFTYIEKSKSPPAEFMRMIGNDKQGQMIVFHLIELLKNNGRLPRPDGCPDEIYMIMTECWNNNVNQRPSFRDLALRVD
human TYK2 (JH2domain-pseudokinase), sequence (P29597 556-888): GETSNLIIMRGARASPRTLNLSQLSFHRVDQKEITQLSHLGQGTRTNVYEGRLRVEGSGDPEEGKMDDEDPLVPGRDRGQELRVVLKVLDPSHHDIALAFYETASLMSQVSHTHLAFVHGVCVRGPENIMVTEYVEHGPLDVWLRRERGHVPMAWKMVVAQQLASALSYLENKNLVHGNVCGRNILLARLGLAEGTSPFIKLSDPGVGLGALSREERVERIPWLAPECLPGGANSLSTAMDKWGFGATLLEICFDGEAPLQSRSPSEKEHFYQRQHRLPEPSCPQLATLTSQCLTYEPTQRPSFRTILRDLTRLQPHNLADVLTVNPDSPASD
Tyk2 kinase domain (DH1), sequence (P29597 897-1176): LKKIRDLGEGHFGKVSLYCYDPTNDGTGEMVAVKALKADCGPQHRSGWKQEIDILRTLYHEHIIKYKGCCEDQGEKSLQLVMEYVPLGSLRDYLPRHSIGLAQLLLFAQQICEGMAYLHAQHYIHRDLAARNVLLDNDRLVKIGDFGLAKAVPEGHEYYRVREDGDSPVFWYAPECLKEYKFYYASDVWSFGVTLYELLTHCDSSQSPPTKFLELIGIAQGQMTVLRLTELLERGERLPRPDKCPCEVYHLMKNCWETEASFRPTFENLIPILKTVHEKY

SMILES	Kd [1]	inhibition at 10 µM ([2]; compound at 10 μM, ATP 10 μM)	inhibition at 10 µM ([3]; compound at 10 μM, ATP 10 μM)	also measured
CNc1cc(Nc2cccnc2C(C)(C)O)nc2c(C(=O)N[C@H]3C[C@H]3F)cnn12 [I-307]	0.2 to 1 nM	< 50%	< 50%	
CNc1cc(Nc2cccn(C3CCN(CC(F)F)CC3)c2=O)nc2c(C(N)=O)cnn12 [I-67]	< 0.2 nM	< 50%	< 50%	
CNc1cc(Nc2cccn([C@@H]3CCC[C@H](OC)C3)c2=O)nc2c(C(=O)N[C@@H]3CC[C@H]3O)cnn12 [I-1054]	< 0.2 nM			inhibition at 10 µM ([2]; 10 μM compound, 10 μM ATP): < 50%; inhibition at 10 µM ([3]; 10 μM compound, 10 μM ATP): < 50%
CNc1cc(Nc2cccn([C@H]3CCCOC3)c2=O)nc2c(C(=O)N[C@H]3COC[C@H]3O)cnn12 [I-784]	> 10 nM			Tyk2 JH1% Inhibition @ 10 μM ([2]; compound at 10 μM, ATP 10 μM): A (percent inhibition at 10 μM lower than 50); JAK2 JH1% Inhibition @ 10 μM ([3]; compound at 10 μM, ATP 10 μM): A (percent inhibition at 10 μM lower than 50)
CNc1cc(Nc2cccnc2C(C)(F)F)nc2c(C(=O)NC3CCC3)cnn12 [I-299]	0.2 to 1 nM	< 50%	< 50%	
CNc1cc(Nc2cccnc2OC2CCC2)nc2c(C(=O)NC3CC3)cnn12 [I-169]	0.2 to 1 nM	< 50%	< 50%	
CNc1cc(Nc2cccnc2O[C@H]2CC[C@H](OC)CC2)nc2c(C(=O)NC3CCC3)cnn12 [I-248]	0.2 to 1 nM	< 50%	< 50%	
CNc1cc(Nc2cccc(N3CC4(CCO4)C3)n2)nc2c(C(=O)N[C@H]3C[C@H]3F)cnn12 [I-619]	< 0.2 nM	< 50%	< 50%	
CNc1cc(Nc2cccnc2O[C@H]2C[C@@H](OC)C2)nc2c(C(=O)NC3CC3)cnn12 [I-184]	0.2 to 1 nM	< 50%	< 50%	
[2H]C([2H])([2H])Oc1ncc(F)cc1Nc1cc(NC)n2ncc(C(=O)N[C@H]3C[C@H]3F)c2n1 [I-289]	< 0.2 nM	< 50%	< 50%	
CNc1cc(Nc2cccn(-c3ccccc3F)c2=O)nc2c(C(=O)N[C@@H]3CC[C@@H]3O)cnn12 [I-1036]	0.2 to 1 nM			inhibition at 10 µM ([2]; 10 μM compound, 10 μM ATP): < 50%; inhibition at 10 µM ([3]; 10 μM compound, 10 μM ATP): < 50%
CNc1cc(-c2cn(CCN3CCOCC3)c3ncccc23)nc2c(C(=O)N[C@@H]3COC[C@@H]3O)cnn12 [I-855, N-((3R,4R)-4-hydroxytetrahydrofuran-3-yl)-7-(methylamino)-5-(1-(2-morpholinoethyl)-1H-pyrrolo[2,3-b]pyridin-3-yl)pyrazolo[1,5-a]pyrimidine-3-carboxamide]	1 to 10 nM			inhibition at 10 µM ([2]; 10 μM compound, 10 μM ATP): < 50%; inhibition at 10 µM ([3]; 10 μM compound, 10 μM ATP): < 50%
CNc1cc(Nc2cccn(-c3ccnc(C)n3)c2=O)nc2c(C(=O)NC3CC3)cnn12 [I-125]	< 0.2 nM	< 50%	< 50%	
CNc1cc(Nc2cccn(CCOC3CC3)c2=O)nc2c(C(=O)N[C@@H]3C[C@@H]3F)cnn12 [I-454]	< 0.2 nM	< 50%	< 50%	
CNc1cc(-n2cc(N3CCOCC3)c3ncccc32)nc2c(C(=O)N[C@H]3C[C@H]3F)cnn12 [I-555]	1 to 10 nM	< 50%	< 50%	
CNc1cc(-n2cc(N3CCN(C)CC3)c3ncccc32)nc2c(C(=O)NC3CC3)cnn12 [I-574]	1 to 10 nM	< 50%	< 50%	
CNc1cc(Nc2cccn([C@@H]3CCC[C@H](OC)C3)c2=O)nc2c(C(=O)NC3CC3)cnn12 [I-568]	< 0.2 nM	< 50%	< 50%	

SMILES	Kd [1]	inhibition at 10 µM ([2]; compound at 10 μM, ATP 10 μM)	inhibition at 10 µM ([3]; compound at 10 μM, ATP 10 μM)	also measured
CNc1cc(Nc2cccn(-c3ncc(C)s3)c2=O)nc2c(C(=O)N[C@H]3CC[C@@H]3O)cnn12 [I-1071]	1 to 10 nM			inhibition at 10 µM ([2]; 10 μM compound, 10 μM ATP): < 50%; inhibition at 10 µM ([3]; 10 μM compound, 10 μM ATP): < 50%
CNc1cc(Nc2cccn([C@H]3CCC[C@H](O)C3)c2=O)nc2c(C(=O)N[C@@H]3C[C@@H]3F)cnn12 [I-1030]	< 0.2 nM			inhibition at 10 µM ([2]; 10 μM compound, 10 μM ATP): < 50%; inhibition at 10 µM ([3]; 10 μM compound, 10 μM ATP): < 50%
CNc1cc(Nc2cccn([C@H]3CC[C@H](O)CC3)c2=O)nc2c(C(N)=O)cnn12 [I-59]	< 0.2 nM	< 50%	< 50%	
CNc1cc(Nc2cccn(C(C)C)c2=O)nc2c(C(=O)NC3CC3)cnn12 [I-394]	0.2 to 1 nM	< 50%	< 50%	
CNc1cc(Nc2cccnc2OC)nc2c(C(=O)N[C@H]3CC[C@@]3(C)O)cnn12 (stereo in doubt) [I-911, N-(2-hydroxy-2-methylcyclobutyl)-5-((2-methoxypyridin-3-yl)amino)-7-(methylamino)pyrazolo[1,5-a]pyrimidine-3-carboxamide]	1 to 10 nM			Tyk2 JH1% Inhibition @ 10 μM ([2]; 10 μM compound, 10 μM ATP): A (percent inhibition at 10 μM lower than 50); JAK2 JH1% Inhibition @ 10 μM ([3]; 10 μM compound, 10 μM ATP): A (percent inhibition at 10 μM lower than 50)
CNc1cc(Nc2cccn(-c3nccs3)c2=O)nc2c(C(N)=O)cnn12 [I-15]	0.2 to 1 nM	< 50%	< 50%	
CNc1cc(Nc2cccn(C3CCCN(CCC#N)C3)c2=O)nc2c(C(=O)NC3CC3)cnn12 (centres unmarked) [I-1009, 5-((1-(1-(2-cyanoethyl)piperidin-3-yl)-2-oxo-1,2-dihydropyridin-3-yl)amino)-N-cyclopropyl-7-(methylamino)pyrazolo[1,5-a]pyrimidine-3-carboxamide]	0.2 to 1 nM			inhibition at 10 µM ([2]; 10 μM compound, 10 μM ATP): < 50%; inhibition at 10 µM ([3]; 10 μM compound, 10 μM ATP): < 50%
CNc1cc(Nc2cccc(N3CCC4(CCCO4)CC3)n2)nc2c(C(=O)N[C@@H]3CC[C@@H]3O)cnn12 [I-657]	< 0.2 nM	< 50%	< 50%	
CNc1cc(Nc2cccnc2O[C@@H]2CCOC2)nc2c(C(=O)NC3CCC3)cnn12 [I-171]	0.2 to 1 nM	< 50%	< 50%	
CNc1cc(Nc2cccnc2OC2CC2)nc2c(C(=O)N[C@H]3CC[C@H](O)C3)cnn12 [I-489, 5-((2-cyclopropoxypyridin-3-yl)amino)-N-((1S,3S)-3-hydroxycyclopentyl)-7-(methylamino)pyrazolo[1,5-a]pyrimidine-3-carboxamide]				Tyk2 JH1% Inhibition @ 10 μM ([2]; compound at 10 μM, ATP 10 μM): A (percent inhibition at 10 μM lower than 50); JAK2 JH1% Inhibition @ 10 μM ([3]; compound at 10 μM, ATP 10 μM): A (percent inhibition at 10 μM lower than 50)
CNc1cc(Nc2cccn([C@H]3CCCOC3)c2=O)nc2c(C(=O)N[C@H]3CC[C@H]3O)cnn12 [I-803]				Tyk2 JH1% Inhibition @ 10 μM ([2]; compound at 10 μM, ATP 10 μM): A (percent inhibition at 10 μM lower than 50); JAK2 JH1% Inhibition @ 10 μM ([3]; compound at 10 μM, ATP 10 μM): A (percent inhibition at 10 μM lower than 50)
CNc1cc(-c2cn(CCN3CCN(C)CC3)c3ncccc23)nc2c(C(=O)N[C@H]3CC[C@H]3O)cnn12 [I-906, N-((1S,2R)-2-hydroxycyclobutyl)-7-(methylamino)-5-(1-(2-(4-methylpiperazin-1-yl)ethyl)-1H-pyrrolo[2,3-b]pyridin-3-yl)pyrazolo[1,5-a]pyrimidine-3-carboxamide]				Tyk2 JH1% Inhibition @ 10 μM ([2]; 10 μM compound, 10 μM ATP): A (percent inhibition at 10 μM lower than 50); JAK2 JH1% Inhibition @ 10 μM ([3]; 10 μM compound, 10 μM ATP): A (percent inhibition at 10 μM lower than 50)
CNc1cc(Nc2cccc(N3CCO[C@@]4(CCOC4)C3)n2)nc2c(C(=O)NC3CC3)cnn12 [I-828]				inhibition at 10 µM ([2]; 10 μM compound, 10 μM ATP): < 50%; inhibition at 10 µM ([3]; 10 μM compound, 10 μM ATP): < 50%
CNc1cc(Nc2cccn([C@@H]3CC[C@H]3O)c2=O)nc2c(C(=O)NC3CC3)cnn12 [I-802]				Tyk2 JH1% Inhibition @ 10 μM ([2]; compound at 10 μM, ATP 10 μM): A (percent inhibition at 10 μM lower than 50); JAK2 JH1% Inhibition @ 10 μM ([3]; compound at 10 μM, ATP 10 μM): A (percent inhibition at 10 μM lower than 50)
CNc1cc(Nc2cccn([C@H]3CCCOC3)c2=O)nc2c(C(=O)N[C@H]3CC[C@@H]3O)cnn12 [I-724]				Tyk2 JH1% Inhibition @ 10 μM ([2]; compound at 10 μM, ATP 10 μM): A (percent inhibition at 10 μM lower than 50); JAK2 JH1% Inhibition @ 10 μM ([3]; compound at 10 μM, ATP 10 μM): A (percent inhibition at 10 μM lower than 50)
CNc1cc(Nc2cccn(C3CCOCC3)c2=O)nc2c(C(=O)N[C@H]3CC[C@@H]3O)cnn12 [I-596]				Tyk2 JH1% Inhibition @ 10 μM ([2]; compound at 10 μM, ATP 10 μM): A (percent inhibition at 10 μM lower than 50); JAK2 JH1% Inhibition @ 10 μM ([3]; compound at 10 μM, ATP 10 μM): A (percent inhibition at 10 μM lower than 50)
